Patent US4737504A, “5-fluoro-and 8-fluoro-trimetoquinol compounds and the processes for their preparation” (priority 1986, dated 1988)
Read-outs that look alike come from different tables or passages of the source.

Experiments:
[1] = tested on: human platelets (ADP-induced serotonin secretion); experiment: inhibition of ADP-induced serotonin secretion, human platelet-rich plasma; format: cell-based; settings: ADP 1-3 μM
Description: (§1) The antiaggregatory and antisecretory activity on human platelets was determined by evaluating the in vitro aggregation and [^14 C]serotonin secretion in human platelet preparations. Blood was taken by venipuncture from normal human volunteers who were reported to be free of medication for at least 10 days before blood drawing. Venous blood samples were mixed with acid-citrate dextrose solution (9:1) and centrifuged at 120×g for 15 minutes at room temperature to obtain platelet-rich plasma, PRP, (Huzoor-Akbar et al., Biochem. Pharmacol., 30: 2013-2020, 1981). The PRP was transferred to polypropylene tubes and stored under an atmosphere of 8% CO2. The remaining blood was centrifuged at 1000×g for 10 minutes to obtain platelet-poor plasma. […] Platelet counts varied between 280,000 to 320,000 per cmm or were adjusted to 300,000 per cmm for the aggregation and secretion experiments. All studies were conducted within 2 hours after PRP recovery.
(§2) For aggregation studies, 0.5 ml of PRP was incubated with drug or vehicle (1-5 μl) for 1 minute at 37° C. before the initiation of aggregation with inducers. […] In all experiments, the minimum concentration of inducer (adenosine diphosphate ADP; epinephrine, E; 15S-hydroxy-11α,9α-epoxymethanoprosta-5Z,13E-dienoic acid, U46619; collagen; and arachidonic acid, AA) which caused maximal irreversible aggregation within each PRP preparation was used. Aggregation was monitored for 4 to 6 minutes after the addition of an inducer and data were presented as a percentage inhibition of either slope or maximal light transmittance changes in the presence of varying drug concentrations.
(§3) Secretion data were calculated as the net increase of serotonin released into the supernatant by each inducer and expressed as a percentage of the total radioactivity in platelets Mayo et al., Biochem. Pharmacol., 30: 2237-2241, 1981. The effect of compounds on serotonin release was expressed as the percentage of inhibition of the maximum release by each inducer and plotted against the log molar concentrations of each agent.

[2] = molecular target: T1, U46619-induced contractions of rat thoracic aorta (Rattus norvegicus, UniProt P34978); experiment: antagonism of U46619-induced contractions of rat thoracic aorta; format: cell-based, rat (male Sprague-Dawley); settings: for Kb: against U46619, read-out: pKB ± SEM (converted); for ΔpD2 of U46619: pD2 (control) - pD2 (treatment); for inhibitory potency on U46619-induced contractions greater than trimetoquinol: relative to trimetoquinol 1
T1 construct: A 2-3 cm segment of thoracic aorta was excised; tissue Harlan Industries, Inc., Cumberland, IN (animals); host or cells: rat thoracic aorta, spirally cut strips
T1 sequence (P34978 1-341): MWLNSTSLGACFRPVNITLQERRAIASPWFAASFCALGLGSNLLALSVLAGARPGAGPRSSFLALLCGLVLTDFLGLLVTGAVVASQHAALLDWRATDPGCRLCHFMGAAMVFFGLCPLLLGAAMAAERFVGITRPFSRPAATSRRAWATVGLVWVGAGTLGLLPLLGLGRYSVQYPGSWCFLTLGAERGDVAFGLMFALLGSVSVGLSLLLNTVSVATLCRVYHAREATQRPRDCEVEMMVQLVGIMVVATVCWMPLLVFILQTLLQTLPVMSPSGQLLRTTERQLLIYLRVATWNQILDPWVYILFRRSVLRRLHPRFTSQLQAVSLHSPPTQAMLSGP
Description: The vasoconstrictive activity of U46619 (a stable thromboxane A2 agonist) on thoracic aorta tissue was determined as follows: Male Sprague-Dawley rats (Harlan Industries, Inc., Cumberland, IN) weighing between 250 and 350 gm were stunned and killed by cervical dislocation. A 2-3 cm segment of thoracic aorta was excised, cleaned of any adhering fat and connecting tissue, spirally cut into 2 matched strips, Constantine, supra. (2.0×0.3 cm). Strips were mounted in 10 ml tissue baths filled with the physiological salt solution in which 3×10^-6 M indomethaecin was present. A tension of 1 gm was applied to the strips. Responses of the tissues to drugs were monitored via Grass FT-03 isometric force transducers connected to a Grass Model 7C polygraph (Grass Instruments Co., Quincy, MA).
Some experiments were done in the absence of indomethacin. Concentration-dependent responses to U46619 were constructed in each preparation as described by Van Rossum, supra.
Effective concentration-50 (EC50) values of the agonists were determined graphically from individual plots of percent response versus log concentration. The potency of each agonist was expressed as a pD2 value where pD2 is equal to the negative logarithm of the experimentally determined EC50 value.
Antagonists were quantitated by calculating their pKB or pA2 values according to the methods of Furchgott, Ann. N.Y. Acad. Sci., 139: 553-570 (1967) and Arunlakshana et al., Br. J. Pharmacol., 14: 48-58 (1959). The pKB value is equivalent to the -log of [I]/(CR-1), where pKB is the negative logarithm of the apparent dissociation constant of the antagonist (KB), [I] is the concentration of the antagonist, and CR is the concentration ratio of the agonist EC50 in the presence of antagonist to the agonist EC50 in the absence of antagonist. To determine significant differences between pD2, pKB or pA2 values, a 5% level of significance was used. Arunlakshana plots were analyzed by computer according to the method of Tallarida et al., Manual of Pharmacological Calculations With Computer Programs, 29-31, (1981).

[3] = tested on: human platelets (U46619-induced aggregation); experiment: inhibition of U46619-induced platelet aggregation in presence of aspirin, human platelet-rich plasma; format: cell-based; settings: U46619 0.5-1.5 μM, aspirin 1 mM
Description: as §1, §2

[4] = tested on: human platelets (epinephrine-induced serotonin secretion); experiment: inhibition of epinephrine-induced serotonin secretion, human platelet-rich plasma; format: cell-based; settings: epinephrine 1-10 μM
Description: as §1, §2, §3

[5] = tested on: human platelets (epinephrine-induced aggregation); experiment: inhibition of the secondary phase of epinephrine-induced platelet aggregation, human platelet-rich plasma; format: cell-based; settings: epinephrine 1-10 μM
Description: as §1, §2

[6] = tested on: human platelets (U46619-induced serotonin secretion); experiment: inhibition of U46619-induced serotonin secretion in presence of aspirin, human platelet-rich plasma; format: cell-based; settings: U46619 0.5-1.5 μM, aspirin 1 mM
Description: as §1, §2, §3

[7] = tested on: human platelets; experiment: human platelet aggregation and serotonin release, inducers taken together; format: cell-based; settings: for inhibition of aggregation and serotonin release: each inducer
Description: as §1, §2, §3

[8] = phenol acidities (pKa) determined spectrophotometrically; format: physicochemical; settings: for pKa: phenol, tris(hydroxymethyl)aminomethane buffer, UV; for times more acidic than 1: relative to trimetoquinol 1
Description: Phenol acidities (pKa) were determined spectrophotometrically, as described by Albert et al., "The determination of Ionization Constants" 3rd Ed., Chapman and Hall, London and New York, 1984, by measuring the absorption as a function of pH in tris(hydroxymethyl)aminomethane buffer. Since the catechols tended to oxidize in basic media the buffers were degassed and flushed with argon prior to use.

[9] = read-out: IC50 serotonin secretion
[10] = read-out: pIC50 serotonin secretion (converted)
[11] = read-out: IC50 platelet aggregation
[12] = read-out: pIC50 platelet aggregation (converted)
[13] = read-out: IC50 platelet aggregation (secondary phase)
[14] = read-out: pIC50 platelet aggregation (secondary phase) (converted)

Compound	IC50 [1, 9] [µM]	IC50 [1, 10] [µM]	Kb ([2]; analog 3 × 10^-5 M) [nM]	Kb ([2]; analog 3 × 10^-6 M) [nM]	pD2 of U46619 in presence of analog ([2]; analog 3 × 10^-5 M)	pD2 of U46619 in presence of analog ([2]; analog 3 × 10^-6 M)	ΔpD2 of U46619 ([2]; analog 3 × 10^-5 M)	ΔpD2 of U46619 ([2]; analog 3 × 10^-6 M)	inhibitory potency on U46619-induced contractions greater than trimetoquinol [2]	IC50 [3, 11] [µM]	IC50 [3, 12] [µM]	IC50 [4, 9] [µM]	IC50 [4, 10] [µM]	IC50 [5, 13] [µM]	IC50 [5, 14] [µM]	IC50 [6, 9] [µM]	IC50 [6, 10] [µM]	inhibition of aggregation and serotonin release [7]	pKa [8]	times more acidic than 1 [8] [times]	other results
COc1cc(CC2NCCc3c2cc(O)c(O)c3F)cc(OC)c1OC (centres unmarked) [Compound 5-F-TMQ, 5-fluoro-trimetoquinol]	17	17	3160	1510	7.14 ± 0.08	7.69 ± 0.08	1.02 ± 0.08	0.48 ± 0.07	about 2 fold	7.4	7.41	7.4	7.59	14.8	14.8	6.9	6.92	inhibitors of aggregation and serotonin release by each inducer	8.11 ± 0.15	4	Kb ([2]; analog 1 × 10^-4 M): 1740 nM; pD2 of U46619 in presence of analog ([2]; analog 1 × 10^-4 M): 6.40 ± 0.16; ΔpD2 of U46619 ([2]; analog 1 × 10^-4 M): 1.77 ± 0.16
COc1cc(CC2NCCc3cc(O)c(O)c(F)c32)cc(OC)c1OC (centres unmarked) [Compound 8-F-TMQ, 8-fluoro-trimetoquinol]	6.6	6.61	372	380	6.25 ± 0.14	7.20 ± 0.12	1.92 ± 0.14	0.96 ± 0.19	~10 fold	3.9	3.89	3.5	3.47	11	11	4.4	4.37	inhibitors of aggregation and serotonin release by each inducer	7.86 ± 0.15	8	Kb ([2]; analog 1 × 10^-5 M): 251 nM; pD2 of U46619 in presence of analog ([2]; analog 1 × 10^-5 M): 6.81 ± 0.12; ΔpD2 of U46619 ([2]; analog 1 × 10^-5 M): 1.36 ± 0.12; potency relative to 2 as an inhibitor of human platelet activation ([7]; relative to analog 2): about 2 fold
